Assay results as given in patent US7419950B2, “Methods of inhibiting ectopic calcification” (University of Washington, priority 1998, dated 2008).

Columns and labels:
[1] = test system: human vascular smooth muscle cells (HSMC); assay: Calcium deposition by human vascular smooth muscle cells in high-phosphate calcification medium; format: cell-based; conditions: for calcium deposition into HSMC matrix (in words): high-phosphate calcification medium
Protocol: (§1) Calcification was assessed by a modification of the method described by Jono et al., Arterioscler. Thromb. Vasc. Biol. 17:1135-1142 (1997) which is incorporated herein by reference. Briefly, the cultures were decalcified with 0.6 N HCl for 24 hours. The calcium content of the HCl supernatant was determined calorimetrically by the o-cresolphthalein complexone method (Calcium Kit, Sigma). After decalcification, the cultures were washed with phosphate-buffered saline (PBS) and solubilized with 0.1 N NaOH/0.1% sodium dodecyl sulfate(SDS). Total protein content was measured with a Bio-Rad Protein Assay Kit (Bio-Rad). The calcium content of the cell layer was normalized to protein content. Phosphorus and calcium concentrations in the culture medium were measured by the phosphomolybdate complex method (Phosphorus Kit, Sigma) and the o-cresolphthalein complexone method (Calcium Kit, Sigma), respectively. Values were expressed as the mean +/− SEM, n=3.
HSMC were routinely subcultured in growth medium. At confluence, cells were switched to calcification medium (DMEM containing 15% FBS and 1 mM sodium pyruvate in the presence of 2 mM inorganic phosphate supplemented with 100 U/ml penicillin and 100 μg/ml of streptomycin) for up to 14 days. The medium was replaced with fresh medium every 2 days. For time-course experiments, the first day of culture in calcification medium was defined as day 0. Calcium deposition was quantified and assessed histochemically and cytochemically as described above in Example I.
Osteopontin proteins and functional fragments were assayed for their ability to inhibit ectopic calcification using the HSMC calcification system described in Example III. The osteopontin proteins include full-length human recombinant osteopontin as well as recombinant N-terminal and C-terminal human osteopontin fragments similar to those that would be formed following thrombin cleavage of the native protein, as described by Smith et al., supra (1996). Two N-terminal fragments were used, 10N and 30N, which refer to two differ splice variants of osteopontin. The 30N splice variant contains an additional 14 amino acids, […] (SEQ ID NO: 7), which correspond to exon 5 (amino acids 59-72). The ION fragment contains amino acids 17-58 and 73-160 of native osteopontin, whereas the 30N fragment contains amino acids 17-169. The 10C fragment contains the C-terminal domain of osteopontin, amino acids 170-317.
Recombinant osteopontin and its functional fragments were assayed for their ability to inhibit ectopic calcification of human smooth muscle cells (HSMC) either prior to or following phosphorylation by casein kinase II. The amount of phosphate incorporated into osteopontin (OPN) and its fragments achieved by casein kinase II phosphorylation is shown in FIG. 5b.

[2] = test system: BASMC; assay: Phosphorus concentration in BASMC culture medium; format: cell-based, bovine; conditions: BASMC calcification medium
Protocol: as §1

[3] = target: T1, alkaline phosphatase (Bos taurus, UniProt P09487); assay: Cellular alkaline phosphatase activity of BASMC cultures; format: cell-based, bovine; conditions: cells in calcification medium
T1 construct: cellular proteins were solubilized with 1% Triton X-100 in 0.9% NaCl and centrifuged; endogenous in cells; host or cells: BASMC (bovine aortic smooth muscle cells), detergent lysate supernatant
T1 sequence (P09487 18-499): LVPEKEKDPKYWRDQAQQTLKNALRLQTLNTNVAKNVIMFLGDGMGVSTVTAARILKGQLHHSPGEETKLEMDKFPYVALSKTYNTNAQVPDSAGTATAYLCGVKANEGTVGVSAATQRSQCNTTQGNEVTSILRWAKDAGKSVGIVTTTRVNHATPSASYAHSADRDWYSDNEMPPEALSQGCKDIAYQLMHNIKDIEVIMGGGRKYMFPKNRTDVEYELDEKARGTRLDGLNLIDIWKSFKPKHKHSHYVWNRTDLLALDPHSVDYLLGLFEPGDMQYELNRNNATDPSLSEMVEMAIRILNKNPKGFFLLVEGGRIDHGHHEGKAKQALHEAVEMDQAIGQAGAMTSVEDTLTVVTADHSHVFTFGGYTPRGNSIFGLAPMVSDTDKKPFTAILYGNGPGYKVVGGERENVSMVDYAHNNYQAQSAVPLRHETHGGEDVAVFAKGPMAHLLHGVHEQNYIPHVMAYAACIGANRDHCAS
Protocol: For cellular alkaline phosphatase activity measurements, cells were cultured in calcification medium in the presence of various concentrations of osteopontin. Cells were washed three times with PBS and cellular proteins were solubilized with 1% Triton X-100 in 0.9% NaCl and centrifuged. Supernatants were assayed for alkaline phosphatase activity by the method described by Bessey et al., J. Biol. Chem. 164:321-329 (1946), which is incorporated herein by reference. One unit was defined as the activity producing 1 nmol of p-nitrophenol within 1 minute. Protein concentrations were determined with a Bio-Rad protein assay kit (Bio-Rad). The data were normalized to the protein content of the cell layer.

[4] = test system: bovine aortic smooth muscle cells (BASMC); assay: Calcium deposition by cultured bovine aortic smooth muscle cells in calcification medium; format: cell-based; conditions: for inhibition of calcium deposition (in words): equimolar concentrations as were effective for osteopontin
Protocol: In order to examine calcification by cultured BASMC smooth muscle cells, calcification was induced by the method described by Shioi et al., Arterioscler Thromb Vasc Biol., 15:2003-2009 (1995), which is incorporated herein by reference. Briefly, BASMC were cultured in growth medium for 4 days, and then switched to calcification medium (DMEM (high glucose, 4.5 g/L) containing 15% FBS and 10 mM sodium pyruvate in the presence of 10 mM of β-glycerophosphate (unless otherwise stated), 10^-7 M insulin, and 50 μg/ml of ascorbic acid, supplemented with 100 U/ml of penicillin and 100 μg/ml of streptomycin) for 10 days. The medium was replaced with fresh medium twice a week. In the time course experiments, the beginning day of culture in calcification medium was defined as day 0.
as §1
To examine the effect of osteopontin on BASMC-mediated calcification in vitro, soluble osteopontin or vehicle alone (0.1 mM sodium citrate) was added to the calcifying BASMC cultures. […] In contrast, vehicle alone had no effect (FIG. 2a).
To exclude the possibility that contaminants in the osteopontin preparation were responsible for the observed inhibitory effect, immunodepletion experiments were performed. Medium containing 10 μg/ml osteopontin was mixed with […] anti-osteopontin (OP-199) or normal goat IgG, prepared by the method described by Liaw et al., supra (1994) and incubated for 1 hr at room temperature. 250 mg protein-A-sepharose was added and incubated for 1 hr at room temperature. The antibody-protein A sepharose complexes were removed by centrifugation, and the remaining supernatant diluted twenty-fold for use in the calcification studies. Unpaired Student's t test was employed to compare groups and a probability value (p) value less than 0.05 was considered significant.

Compound: O=P(O)(O)O [inorganic phosphate]
- calcium deposition ([1]; 2 mM inorganic phosphate, day 9, mean +/-SEM): 210.3+/−2.4 μg/mg protein

Compound: c1ccc([C@H]2CN3CCSC3=N2)cc1 [levamisole, reference compound]
- phosphorus concentration of the culture medium (in words) [2]: reduced
- alkaline phosphatase activity of BASMC cultures (in words) [3]: dose-dependently inhibited
- IC50 ([4]; Bos taurus, BASMC cultures in calcification medium, read-out: half-maximal inhibition of calcium deposition): 50 µM
- calcium deposition in BASMC cultures (in words) ([4]; levamisole versus vehicle): dose-dependently inhibited

Compound: O=P(O)(O)OC(CO)CO [β-glycerophosphate]
- EC50 ([4]; BASMC, initial concentration of β-glycerophosphate in medium, read-out: concentration giving half-maximal calcium deposition): ~4000 µM

Compound: OPN: full-length human recombinant osteopontin prepared as a His-tagged protein; tested with or without casein kinase II phosphorylation
- inhibition of ectopic calcification, dose relation (in words) ([1]; 0.1 μg/ml to 5.0 μg/ml): dose-dependent
- time to significantly reduced calcium deposition ([1]; after addition to HSMC): ≤ 60 min
- inhibition of calcification ([1]; by 90 minutes following addition): approximately 50%
- calcium deposition into HSMC matrix (in words) ([1]; non-phosphorylated forms): do not significantly affect
- HSMC calcification (in words) ([1]; phosphorylated by casein kinase II, 15 nM): able to inhibit HSMC calcification
- HSMC calcification (in words) ([1]; phosphorylated protein dephosphorylated with alkaline phosphatase (ALP)): reverses this inhibitory ability
- calcium deposition into HSMC matrix (in words) ([1]; protein phosphorylated by casein kinase II): reduced to basal levels

Compound: fibronectin: bovine fibronectin (TELIOS), RGD-containing extracellular matrix molecule [reference compound]
- inhibition of calcium deposition (in words) [4]: unable to inhibit calcium deposition

Compound: osteopontin: Rat osteopontin purified from the conditioned medium of rat neonatal smooth muscle cell cultures, >95% pure
- phosphorus concentration of the culture medium (in words) [2]: did not reduce
- alkaline phosphatase activity of BASMC cultures (in words) [3]: did not affect
- inhibition of BASMC culture calcification ([4]; 0.5 ug/ml added on day 7 after start of mineralization, read at day 10): 50%
- fold inhibition of calcification versus vehicle ([4]; 0.5 ug/ml in medium): 18 fold
- inhibition of calcification ([4]; 0.5 μg/ml, 10 days): approximately 90%
- calcium deposition in cell layer ([4]; 0.5 ug/ml, no immunodepletion): 0.33 ± 0.06 µmol/mg
- inhibition of calcification (in words) ([4]; 5 μg/ml, 10 days): almost completely inhibited
- calcification of BASMC (in words) ([4]; 0.05, 0.5 and 5 μg/ml, assessed at 10 days): dose-dependently inhibited
- dependence of inhibitory effect on mineralization on calcium (in words) ([4]; medium supplemented with increasing calcium, 10 days): calcium dependent
- calcium deposition in cell layer ([4]; osteopontin solution immunodepleted with anti-osteopontin antibody (OP-199)): 2.60 ± 0.43 µmol/mg
- calcium deposition in cell layer ([4]; osteopontin solution treated with normal goat IgG): 0.49 ± 0.10 µmol/mg

Compound: vitronectin [reference compound]
- inhibition of calcium deposition (in words) [4]: unable to inhibit calcium deposition
